Laboratory results taken from patent US20250100962A1 (CITY OF HOPE, priority 2023, published 2025).

Legend:
[1] = system: primary myoblasts derived from patients with Duchene Muscular Dystrophy; assay: Myogenic induction in human DMD primary myoblasts (immunoblot); type: cell-based; settings: 3 days of differentiation
Excerpt: FIGS. 40A-40B. Chlorhexidine and CM002 promote myogenic induction in human DMD primary myoblasts. Using primary myoblasts derived from patients with Duchene Muscular Dystrophy, we determined the effect of Chlorhexidine and CM002 on promoting myogenic induction.

[2] = system: mdx mice; type: in vivo; settings: 10 mg/kg IP daily, 3 doses; vs non-treated or DMSO
Method: FIGS. 48A-48C. Systemic delivery of CM002 by intraperitoneal injection improves muscle strength in dystrophic mdx mice. Based on the PK analysis, we determined the maximal lethal dose in mdx mice via daily intraperitoneal injections using escalating doses. Starting doses were tested at 10, 20 and 30 mg/Kg/day, for 3 consecutive days in male or female mdx mice (FIG. 48A).

[3] = system: C57/BL6 mice; assay: Metabolic cage monitoring of C57/BL6 mice after intraperitoneal injection; type: in vivo, mouse; settings: 5 mg/Kg IP daily
Method: To examine potential effects of CM002 on central clock located in suprachiasmatic nuclei that controls food intake, activity and sleep rhythms, we administered CM002 (5 mg/Kg) together with DMSO as vehicle control using daily IP injections in normal C57/BL6 mice. Mice received daily injections for 3 doses and their food and water intake, activity level and energy expenditure were monitored using metabolic cages for 3 days.

[4] = system: C2C12 myoblast cell line; assay: MTT cell viability of C2C12 myoblasts; type: cell-based; settings: 0.2-5 μM for 48 hours
Method: Cells were seeded at 5×10^4 concentration in 100 μl culture medium into 96 wells flat bottom microplates and treated after 24 h with desired compounds and controls. After desired incubation periods, cells were treated with MTT labeling reagent 1× (MTT (3-[4,5-dimethylthiazol-2-yl]-2,5-diphenyltetrazolium bromide labeling reagent, 5 mg/ml in PBS, Roche Cell Proliferation Kit I (MTT)) and Solubilization buffer 1× (10% SDS in 0.01 M HCl and left overnight. Next morning absorbance was measured at 570 nm and 700 nm on microplate (ELISA) reader (TECAN infinite M200pro). The mean and standard deviation values were calculated for each well and graphed.
FIGS. 41A-41D. Effect of Chlorhexidine (CHX) and CM002 treatment on viability of mouse and human myoblasts. To determine potential toxic effects of CHX and CM002, we treated mouse C2C12 myoblast cell line with increasing concentrations from 0.2-5 μM for 48 hours and determined cell viability using the MTT assay (FIG. 41A). […] Considering the inflammatory milieus in dystrophic muscles, we further tested the tolerance of myoblasts to these molecules in the presence of inflammatory stimuli, a cytokine cocktail (CC) consisted of 10 ng/mL IL-1β, 100 ng/mL IFN-γ and 25 ng/mL of TNF-α (FIG. 41B). […] Lastly, human primary myoblasts derived from Duchene Muscular Dystrophy (DMD) patients were used to determine their tolerance to these compounds.

[5] = system: 3T3-L1 preadipocytes containing Per2::dLuc luciferase reporter; assay: Bioluminescence monitoring of Per2::dLuc reporter in 3T3-L1 preadipocytes; type: cell-based
Method: Generation of stable adipogenic progenitor cell lines containing Per2::dLuc. 3T3-L1 preadipocytes and the C3H10T1/2 mesenchymal stem cells obtained from ATCC were used for Per2:: dLuc lentiviral transduction and stable clone selection using puromycin, as described previously (Guo et al., 2012). Briefly, cells were transfected with lentiviral packaging plasmids (pSPAX.2 and pMD2.G) and lentivirus vectors Per2::dLuc using PEI Max (Polysciences). At 48 hours post-transfection, lentiviruses were collected. 3T3-L1 and C3H10T1/2 […] cells were infected using collected lentiviral media supplemented with polybrene. 24 hours following lentiviral infection, stable cell lines were selected in the presence of 2 μg/ml puromycin.
Continuous Bioluminescence monitoring of Per2:: dLuc luciferase reporter. 3T3-L1 and C3H10T1/2 cells containing a Per2::dLuc luciferase reporter were generated as described previously (Xiong et al., 2023). […] Raw and subtracted results of real-time bioluminescence recording data for 6 days were exported, and data was calculated as luminescence counts per second, as previously described (Xiong, Li, Nam et al., 2022). […] Briefly, raw data following the first cycle from day 2 to […] were fitted to a linear baseline, and the baseline-subtracted data (polynomial number=1) were fitted to a sine wave, from which period length and goodness of fit and damping constant were determined.

[6] = system: U2OS cells; assay: Clock gene and protein expression in U2OS cells (immunoblot, RT-qPCR); type: cell-based; settings: 24 h
Method: Total protein (20-30 μg) was extracted using standard IP Lysis buffer (3% NaCl, 5% Tris-HCl, 10% Glycerol, 0.5% Triton X-10 in Sterile MilliQ water) and resolved on 10% SDS-Page gels followed by western blotting on Immun-Blot PVDF Membranes for Protein Blotting (Bio-rad). Antibodies used were diluted in 5% milk (Labscientific CN: M0841). Membranes were washed with TBS-T [10% TBS, 0.1% Tween™ 20 (Fisher BioReagents CN: BP377-500)]. Images were developed using Luminol solution 1:1 SuperSignal West Pico PLUS Stable Peroxide Solution (Thermo Scientific CN: 1863095) and SuperSignal West Pico PLUS Luminol Enhancer Solution (Thermo Scientific CN: 1863094) on chemiluminescence imager (GE Healthcare Bio-Sciences AB Amersham Imager 680).
Cells extracted with TRIzol™ Reagent (Ambion CN: 15596018) were collected. RNA extraction was performed with Chloroform (Fisher Chemical CN: C298-500) and Isopropanol (Fisher Chemical CN: A451SK-4) extraction followed by two purification steps with 75% Ethanol (Fisherbrand CN: HC-800-1GAL) and elution in Sterile MilliQ water.
The RNA concentration was measured using Nanodrop spectrophotometer (Thermo Fisher). Following RNA extraction, retro transcription was performed using RevertAid RT Reverse Transcription Kit (Thermo Fisher CN: K1691) and run on SimpliAmp Thermal Cycler (Thermo Fisher CN: A24811) according to the kit procedure. Quantitative PCR was performed using PowerUp™ SYBR™ Green Master Mix (Thermo Fisher CN: A25742) using a dilution of 5:2:1 master mix, RNA and H2Omq according to the protocol on ViiA 7 Real-Time PCR System (Applied Biosystems). Relative expression levels were determined using the comparative Ct method to normalize target genes to 36B4 internal controls.

SMILES	MyoD and Myogenin protein (myogenic factors) [1]	Bmal1 protein expression ([1]; 0.2 and 0.5 μM)	increase of grip strength [2] [%]	daily ambulatory activity levels [3]	water consumption [3]	accumulative food consumption, relative to normal food intake level ([3]; 3 doses, after 3 days) [%]	energy expenditure ([3]; calculated from oxygen consumption)	concentration at which number of viable cells drops [4] [nM]	clock cycling amplitude [5]	clock period length [5]	CLOCK and Bmal1 transcripts ([6]; RT-qPCR)	Dbp, Nr1d1, Nr1d2 and Cry2 transcripts ([6]; RT-qPCR)	Bmal1 protein expression ([6]; immunoblot)	CLOCK protein levels ([6]; immunoblot)	Rev-erbα (Nr1d1) and Period 2 (Per 2) protein ([6]; immunoblot)
CCCCCC/C=N/C(=N)NC(=N)Nc1ccc(Cl)cc1 [CM002]	Robust inductions of MyoD and Myogenin protein	significantly elevated protein expression of Bmal1	~16	tendency toward reduction although not significantly altered	remains comparable between groups	~25	persistently elevated	–	–	–	–	–	–	–	–
[H]/N=C(\N/C(=N/[H])NCCCCCCNC(=N)NC(=N)Nc1ccc(Cl)cc1)Nc1ccc(Cl)cc1 [CHX, chlorhexidine]	–	–	–	–	–	–	–	2500	increasing amplitude	reducing period length	markedly up-regulated	stimulated	elevated Bmal1 expression at 0.2 and 0.5 μM	sufficient to induce CLOCK protein levels	induced by CHX in a largely dose-dependent manner
